Patent publication US7989471B2, “Macrocyclic inhibitors of hepatitis C virus” (Tibotec Pharmaceuticals Ltd., priority 2005, dated 2011)

Assays:
[1] = test system: HCV replicons (NS3-NS5B regions of HCV type Ib) in Huh-7 luc/neo cells; assay: HCV replicon assay (Huh-Luc luciferase reporter); assay type: cell-based; settings: Hepatitis C virus, Huh-7, 72 h; Huh-Luc replicon cells, three days incubation, luciferase activity; read-out: EC50
Protocol: The in vitro antiviral activity against HCV of the compounds of formula (I) was tested in a cellular HCV replicon system based on Lohmann et al. (1999) Science 285:110-113, with the further modifications described by Krieger et al. (2001) Journal of Virology 75: 4614-4624, which is further exemplified in the examples section. This model, while not a complete infection model for HCV, is widely accepted as the most robust and efficient model of autonomous HCV RNA replication currently available. […] It will be appreciated that it is important to distinguish between compounds that specifically interfere with HCV functions from those that exert cytotoxic or cytostatic effects in the HCV replicon model, and as a consequence cause a decrease in HCV RNA or linked reporter enzyme concentration. Assays are known in the field for the evaluation of cellular cytotoxicity based for example on the activity of mitochondrial enzymes using fluorogenic redox dyes such as resazurin. Furthermore, cellular counter screens exist for the evaluation of non-selective inhibition of linked reporter gene activity, such as firefly luciferase. Appropriate cell types can be equipped by stable transfection with a luciferase reporter gene whose expression is dependent on a constitutively active gene promoter, and such cells can be used as a counter-screen to eliminate non-selective inhibitors.
The compounds of formula (I) were examined for activity in the inhibition of HCV RNA replication in a cellular assay. […] The cellular assay was based on a bicistronic expression construct, as described by Lohmann et al. (1999) Science vol. 285 pp. 110-113 with modifications described by Krieger et al. (2001) Journal of Virology 75: 4614-4624, in a multi-target screening strategy. In essence, the method was as follows.
The assay utilized the stably transfected cell line Huh-7 luc/neo (hereafter referred to as Huh-Luc). This cell line harbors an RNA encoding a bicistronic expression construct comprising the wild type NS3-NS5B regions of HCV type Ib translated from an Internal Ribosome Entry Site (IRES) from encephalomyocarditis virus (EMCV), preceded by a reporter portion (FfL-luciferase), and a selectable marker portion (neo^R, neomycine phosphotransferase). The construct is bordered by 5′ and 3′ NTRs (non-translated regions) from HCV type Ib. Continued culture of the replicon cells in the presence of G418 (neo^R) is dependent on the replication of the HCV RNA. The stably transfected replicon cells that express HCV RNA, which replicates autonomously and to high levels, encoding inter alia luciferase, are used for screening the antiviral compounds.
The replicon cells were plated in 384 well plates in the presence of the test and control compounds which were added in various concentrations. Following an incubation of three days, HCV replication was measured by assaying luciferase activity (using standard luciferase assay substrates and reagents and a Perkin Elmer ViewLux™ ultraHTS microplate imager). Replicon cells in the control cultures have high luciferase expression in the absence of any inhibitor. The inhibitory activity of the compound on luciferase activity was monitored on the Huh-Luc cells, enabling a dose-response curve for each test compound.

[2] = In vitro metabolic blocking by ritonavir in human liver microsomes; assay type: in vitro ADME; settings: 3 μM test compound, human liver microsomes 1 mg/ml, 37° C., % of initial concentration
Protocol: Compound nr 11 of Table 1 was tested in a metabolic blocking experiment using 3 μM test compound together with 10 μM ritonavir acting as booster.
The test compound and ritonavir were added to human liver microsomes (protein concentration 1 mg/ml) suspended in potassium phosphate buffer (pH=7.4), to get final reaction mixture concentrations of 3 μM test compound and 10 μM ritonavir. In the non-boosted parallel reactions, ritonavir was not added. Boiled human liver microsomes were used for blank experiments. After addition (in a 1:3 ratio) of a cofactor mixture consisting of β-nicotinamide adenine dinucleotide phosphate (β-NADP, 0.5 mg/ml, 653.2 μM), D-Glucose-6-phosphate (2 mg/ml, 7.1 mM), Glucose-6-phosphate dehydrogenase (1.5 U/ml) in 2% NaHCO3, the reaction mixture was incubated at 37° C. for 30 or 120 minutes after which the reaction was stopped by increasing the temperature to 95° C. Test compound concentrations were determined using HPLC-MS.
Values are percentages of the test compound detected after the indicated incubation times as compared to the initial test compound concentration. Each value is the mean of the results of two independent experiments.

SMILES | EC50 [1] [µM] | also measured
COc1ccc2c(O[C@@H]3C[C@H]4C(=O)N[C@]5(C(=O)NS(=O)(=O)C6CC6)C[C@H]5/C=C\CCCCCCC(=O)N4C3)cc(-c3nc(C(C)C)cs3)nc2c1 [Compound 11, N-[[18-[2-[4-(isopropyl)thiazol-2-yl]-7-methoxyquinolin-4-yloxy]-2,15-dioxo-3,16-diazatricyclo[14.3.0.0^4,6]nonadec-7-en-4-yl]carbonyl](cyclopropyl)sulfonamide] | 0.017 | % Detected Compound ([2]; 30′ incubation, No Booster): 28%; % Detected Compound ([2]; 30′ incubation, with 10 μM ritonavir): 79%; % Detected Compound ([2]; 120′ incubation, No Booster): 0%; % Detected Compound ([2]; 120′ incubation, with 10 μM ritonavir): 91%
COc1ccc2c(O[C@@H]3C[C@H]4C(=O)N[C@]5(C(=O)NS(=O)(=O)C6CC6)C[C@H]5/C=C\CCCCCC(=O)N4C3)cc(-c3nc(C(C)C)cs3)nc2c1Cl [Compound 57, N-[17-[8-chloro-2-(4-isopropylthiazol-2-yl)-7-methoxyquinolin-4-yloxy]-2,14-dioxo-3,15-diazatricyclo[13.3.0.0^4,6]octadec-7-ene-4-carbonyl]-(cyclopropyl)sulfonamide] | 0.012 | –
COc1ccc2c(O[C@@H]3C[C@H]4C(=O)N[C@]5(C(=O)O)C[C@H]5/C=C\CCCCCCC(=O)N4C3)cc(-c3cscn3)nc2c1 [Compound 35, 18-[7-methoxy-2-(thiazol-4-yl)quinolin-4-yloxy]-2,15-dioxo-3,16-diazatricyclo[14.3.0.0^4,6]nonadec-7-ene-4-carboxylic acid] | 1.63 | –
COc1ccc2c(O[C@@H]3C[C@H]4C(=O)N[C@]5(C(=O)NS(=O)(=O)C6CC6)C[C@H]5/C=C\CCCCCC(=O)N4C3)cc(-c3nc(C(C)C)cs3)nc2c1C [Compound 59, N-[17-[2-(4-isopropylthiazol-2-yl)-7-methoxy-8-methylquinolin-4-yloxy]-2,14-dioxo-3,15-diazatricyclo[13.3.0.0^4,6]octadec-7-ene-4-carbonyl]-(cyclopropyl)sulfonamide] | 0.003 | –
COc1ccc2c(O[C@@H]3C[C@H]4C(=O)N[C@]5(C(=O)NS(=O)(=O)C6CC6)C[C@H]5/C=C\CCCCCCC(=O)N4C3)cc(-c3nccs3)nc2c1Br [Compound 42, N-[18-[8-bromo-2-(thiazol-2-yl)-7-methoxyquinolin-4-yloxy]-2,15-dioxo-3,16-diazatricyclo[14.3.0.0^4,6]nonadec-7-ene-4-carbonyl]-(cyclopropyl)sulfonamide] | 0.002 | –
COc1ccc2c(O[C@@H]3C[C@H]4C(=O)N[C@]5(C(=O)NS(=O)(=O)C6CC6)C[C@H]5/C=C\CCCCCCC(=O)N4C3)cc(-c3nccs3)nc2c1 [Compound 32, N-[18-[7-methoxy-2-(thiazol-2-yl)quinolin-4-yloxy]-2,15-dioxo-3,16-diazatricyclo[14.3.0.0^4,6]nonadec-7-ene-4-carbonyl](cyclopropyl)-sulfonamide] | 0.017 | –
COc1ccc2c(O[C@@H]3C[C@H]4C(=O)N[C@]5(C(=O)O)C[C@H]5/C=C\CCCCCC(=O)N4C3)cc(-c3nc(C(C)C)cs3)nc2c1C [Compound 58, 17-[2-(4-isopropylthiazol-2-yl)-7-methoxy-8-methylquinolin-4-yloxy]-2,14-dioxo-3,15-diazatricyclo[13.3.0.0^4,6]octadec-7-ene-4-carboxylic acid] | 1.59 | –
COc1ccc2c(O[C@@H]3C[C@H]4C(=O)N[C@]5(C(=O)O)C[C@H]5/C=C\CCCCCCC(=O)N4C3)cc(-c3nccs3)nc2c1 [Compound 31, 18-[7-methoxy-2-(thiazol-2-yl)quinolin-4-yloxy]-2,15-dioxo-3,16-diazatricyclo[14.3.0.0^4,6]nonadec-7-ene-4-carboxylic acid] | 4.94 | –
